Consider eight compounds from ChEMBL document CHEMBL1944544, “Synthesis and immunological evaluation of the 4-β-glucoside of HMBPP” (Bioorg Med Chem Lett, 2012).

Assay [1] is described as follows: Immunostimulatory activity in human Gamma delta T cells expressing Vgamma2Vdelta2T assessed as proliferation after 16 to 24 hrs by [3H]thymidine incorporation assay. The assay is classed as functional, cell-based. The conditions noted are these: T-cell. For orientation: Uptake of a labelled nucleoside into DNA is a usual measure of proliferation.
Assay [2] deals with T-cell. Nature of the assay: Immunostimulatory activity in human Gamma delta T cells expressing Vgamma2Vdelta2T assessed as proliferation up to 300 uM after 16 to 24 hrs by [3H]thymidine incorporation assay. It counts as functional, cell-based.
For assay [3], the system named is T-cell. In words: Ratio of compound EC50 to isopentenyl pyrophosphate EC50 for immunostimulatory activity in human Gamma delta T cells expressing Vgamma2Vdelta2T. It counts as functional.

Molecules are shown by their SMILES. Active and inactive are the calls of the source. The rule behind the calls is not given here.

Turning to `C/C(=C\COP(=O)(O)OP(=O)(O)O)COC(=O)c1ccc(C(=O)c2ccccc2)cc1`, in assay [1], the EC50 was determined as 0.08 nM.

Turning to `C/C(=C\COP(=O)(O)OP(=O)(O)O)COC(=O)c1cccc(C(=O)c2ccccc2)c1`, the EC50 in assay [1] came to 0.08 nM.

Take `C/C(=C\COP(=O)(O)OP(=O)(O)O)COCc1cccc(C(=O)c2ccccc2)c1`: the EC50 in assay [1] was 1.8 nM.

For the compound `C/C(=C\CO[C@@H]1O[C@H](CO)[C@@H](O)[C@H](O)[C@H]1O)CO`, the result in the assay with T-cell [2] was inactive.

Consider `C/C(=C\COP(=O)(O)OP(=O)(O)O)COCc1ccc(C(=O)c2ccccc2)cc1`, for which the EC50 in assay [1] turned out to be 1.8 nM.

In the case of `C/C(=C\CO)CO[C@@H]1O[C@H](CO)[C@@H](O)[C@H](O)[C@H]1O`, in the assay with T-cell [2], the result was inactive.

In the case of `CC(=O)OC[C@H]1O[C@@H](OC/C(C)=C/COP(=O)(O)OP(=O)(O)O)[C@H](OC(C)=O)[C@@H](OC(C)=O)[C@@H]1OC(C)=O`, the EC50 in assay [1] stood at 360 nM.

As for `C/C(=C\COP(=O)(O)OP(=O)(O)O)CO[C@@H]1O[C@H](CO)[C@@H](O)[C@H](O)[C@H]1O`, the EC50 in assay [1] worked out at 78 nM. In the assay on T-cell [3], the “Ratio EC50” value stood at 12.

The EC50 is the concentration giving half of the maximal effect.
